Read-outs that look alike come from different tables or passages of the source. Starred links: 1 amine or outer side, 2 acyl side, 3 side chain; linkers in the order of their positions; H or OH if unused. Positions of bridges follow the written chain, without caps; N, C: chain ends. Non-standard residues stand in square brackets, D forms with d. Residues, ends and D or L forms follow the SMILES beside them. Groups on a side chain read outwards from the residue. *: point of attachment. Ala(piperidin-4-yl) = O=C([C@H](CC1CCN([*:3])CC1)N[*:1])[*:2]; DOTA = O=C(O)CN1CCN(CC(=O)O)CCN(CC(=O)*)CCN(CC(=O)O)CC1; Trp(5-F) = N[C@@H](Cc1c[nH]c2ccc(F)cc12)C(=O)O; Ala(4-THP) = N[C@@H](CC1CCOCC1)C(=O)O; Val(3-OH) = CC(C)(O)[C@H](N)C(=O)O; Cha = N[C@@H](CC1CCCCC1)C(=O)O; PEG4 = NCCOCCOCCOCCOCCC(=O)O; Tle = CC(C)(C)[C@H](N)C(=O)O; hLeu = CC(C)CC[C@H](N)C(=O)O; Dab = NCC[C@H](N)C(=O)O; Sar = CNCC(=O)O
Key:
Calu-6 cell line [1] = assay: Net internalization of [177Lu]Lu-labeled peptide in Calu-6 cells; type: cell-based, Human; details: 1 hour, 37° C., glycine pH 2.5 acid wash
In short: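 Peptide conjugate labeled with [177Lu]LuCl3 at pH ~5, 80 °C, 17–20 min, and purity checked by RP-HPLC. B7-H3-expressing human Calu-6 lung cancer cells at 5 million cells/mL in 1% PBSA. Internalized fraction: counts left after two 3 min 50 mM glycine pH 2.5 washes and NaOH lysis, gamma counted against bound fraction.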

Calu-6 cell line [2] = assay: Cell associated (bound) fraction of [177Lu]Lu-labeled peptide in Calu-6 cells; type: cell-based, Human; details: 1 hour, 37° C.
In short: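 Peptide conjugate was labelled with [177Lu]LuCl3 in ammonium acetate pH ~5 at 80 °C for 17-20 min, with purity checked by RP-HPLC. Calu-6 suspensions (5 million cells/mL in 1% PBSA) were incubated with 0.8 μCi for 1 h at 37 °C. Cell pellets were gamma-counted after two cold PBS/BSA washes, giving the bound fraction against the unbound supernatant plus washes.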

human 4lg B7-H3 = molecular target: T1, human 4lg B7-H3 (Homo sapiens, UniProt Q5ZPR3); assay: Affinity determination by surface plasmon resonance (SPR) to 4Ig B7-H3; details: 4Ig B7-H3
T1 sequence (Q5ZPR3 29-534): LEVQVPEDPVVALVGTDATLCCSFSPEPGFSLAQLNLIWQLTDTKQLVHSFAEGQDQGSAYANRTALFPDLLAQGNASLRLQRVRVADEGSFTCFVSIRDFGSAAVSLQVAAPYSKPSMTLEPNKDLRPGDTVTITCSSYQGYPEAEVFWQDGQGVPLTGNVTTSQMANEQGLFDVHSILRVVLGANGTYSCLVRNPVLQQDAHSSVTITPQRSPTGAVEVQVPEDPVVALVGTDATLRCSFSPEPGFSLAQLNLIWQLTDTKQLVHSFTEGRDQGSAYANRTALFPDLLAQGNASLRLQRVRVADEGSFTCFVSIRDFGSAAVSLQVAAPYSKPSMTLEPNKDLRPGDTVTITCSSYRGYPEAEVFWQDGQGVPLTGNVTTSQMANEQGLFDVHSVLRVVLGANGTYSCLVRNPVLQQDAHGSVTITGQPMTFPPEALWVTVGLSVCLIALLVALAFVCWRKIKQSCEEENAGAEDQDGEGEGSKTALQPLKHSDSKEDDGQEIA

[3] = read-out: SPR KD—37° C., 37° C. flow cell temperature
[4] = read-out: SPR KD—25° C., 25° C. flow cell temperature
[5] = SPR KD—37° C., 37° C. flow cell temperature

Row | Compound | % net internalization (Calu-6 cell line [1]) | % cell associated fraction (Calu-6 cell line [2]) | Kd (human 4lg B7-H3; [3]) | Kd (human 4lg B7-H3; [4]) | Kd (human 4lg B7-H3; [5])
1 | CC(=O)N[C@@H](CCC(C)C)C(=O)N[C@@H](Cc1ccc(O)cc1)C(=O)N[C@H]1CSSC[C@@H](C(=O)N[C@@H](Cc2c[nH]c3ccc(F)cc23)C(=O)N[C@@H](Cc2ccccc2)C(=O)N[C@H](C(=O)N[C@H](CCCCNC(=O)CN2CCN(CC(=O)O)CCN(CC(=O)O)CCN(CC(=O)O)CC2)C(=O)O)C(C)(C)O)NC(=O)[C@H](Cc2ccc(O)cc2)NC(=O)[C@H](C(C)C)NC(=O)[C@H](CC(=O)O)NC(=O)[C@H](CC2CCOCC2)NC(=O)[C@H](CCCCN)NC(=O)CN(C)C(=O)[C@H](C(C)(C)C)NC1=O [compound 348, Ac-hLeu-Y-C-Tbg-Sar-K-ThpA-D-V-Y-C-5FW-F-hydroxyVal-dLys(DOTA)-COOH] (Ac-[hLeu]YC[Tle][Sar]K[Ala(4-THP)]DVYC[Trp(5-F)]F[Val(3-OH)][dK](DOTA)-OH; disulfide 3-11) | A (%≤25) | B (25<%≤50) | < 1 nM |  | 
2 | CC(=O)N[C@@H](CCC(C)C)C(=O)N[C@@H](Cc1ccc(O)cc1)C(=O)N[C@H]1CSSC[C@@H](C(=O)N[C@@H](Cc2c[nH]c3ccc(F)cc23)C(=O)N[C@@H](Cc2ccccc2)C(=O)N[C@H](C(=O)N[C@H](CCCCNC(=O)CN2CCN(CC(=O)O)CCN(CC(=O)O)CCN(CC(=O)O)CC2)C(N)=O)[C@@H](C)O)NC(=O)[C@H](Cc2ccc(O)cc2)NC(=O)[C@H](C(C)C)NC(=O)[C@H](CC(=O)O)NC(=O)[C@H](Cc2ccc(O)cc2)NC(=O)[C@H](CCCCN)NC(=O)CN(C)C(=O)[C@H](C(C)C)NC1=O [compound 77, Ac-hLeu-Y-C-V-Sar-K-Y-D-V-Y-C-5FW-F-Thr-dLys(DOTA)-CONH2] (Ac-[hLeu]YCV[Sar]KYDVYC[Trp(5-F)]FT[dK](DOTA)-NH2; disulfide 3-11) | A (%≤25) | C (%>50) |  | 1 to 10 nM | 
3 | CC(=O)N[C@@H](CCC(C)C)C(=O)N[C@@H](Cc1ccc(O)cc1)C(=O)N[C@H]1CSSC[C@@H](C(=O)N[C@@H](Cc2c[nH]c3ccc(F)cc23)C(=O)N[C@@H](Cc2ccccc2)C(=O)N[C@H](C(=O)N[C@H](C)C(N)=O)C(C)(C)O)NC(=O)[C@H](Cc2ccc(O)cc2)NC(=O)[C@H](C(C)C)NC(=O)[C@H](CC(=O)O)NC(=O)[C@H](CC2CCOCC2)NC(=O)[C@H](CC2CCN(C(=O)CCOCCOCCOCCOCCNC(=O)CN3CCN(CC(=O)O)CCN(CC(=O)O)CCN(CC(=O)O)CC3)CC2)NC(=O)CNC(=O)[C@H](C(C)(C)C)NC1=O [compound 384, Ac-hLeu-Y-C-Tbg-G-Pip(PEG4-DOTA)Ala-ThpA-D-V-Y-C-5FW-F-hydroxyVal-dAla-CONH2] (Ac-[hLeu]YC[Tle]G[Ala(piperidin-4-yl)]([PEG4-DOTA])[Ala(4-THP)]DVYC[Trp(5-F)]F[Val(3-OH)][dA]-NH2; disulfide 3-11) | A (%≤25) | B (25<%≤50) | < 1 nM |  | 
4 | CC(=O)N[C@@H](CCC(C)C)C(=O)N[C@@H](Cc1ccc(O)cc1)C(=O)N[C@H]1CSSC[C@@H](C(=O)N[C@@H](Cc2c[nH]c3ccc(F)cc23)C(=O)N[C@@H](Cc2ccccc2)C(=O)N[C@H](C(=O)N[C@H](CCCCNC(=O)CN2CCN(CC(=O)O)CCN(CC(=O)O)CCN(CC(=O)O)CC2)C(N)=O)C(C)(C)O)NC(=O)[C@H](Cc2ccc(O)cc2)NC(=O)[C@H](C(C)C)NC(=O)[C@H](CC(=O)O)NC(=O)[C@H](CC2CCCCC2)NC(=O)[C@H](CC2CCNCC2)NC(=O)CNC(=O)[C@H](C(C)C)NC1=O [compound 227, Ac-hLeu-Y-C-V-G-PipAla-CHA-D-V-Y-C-5FW-F-hydroxyVal-dLys(DOTA)-CONH2] (Ac-[hLeu]YCVG[Ala(piperidin-4-yl)][Cha]DVYC[Trp(5-F)]F[Val(3-OH)][dK](DOTA)-NH2; disulfide 3-11) | B (25<%≤50) | C (%>50) |  | < 1 nM | 
5 | CC(=O)N[C@@H](CCC(C)C)C(=O)N[C@@H](Cc1ccc(O)cc1)C(=O)N[C@H]1CSSC[C@@H](C(=O)N[C@@H](Cc2c[nH]c3ccc(F)cc23)C(=O)N[C@@H](Cc2ccccc2)C(=O)N[C@H](C(=O)N[C@H](CCCCNC(=O)CN2CCN(CC(=O)O)CCN(CC(=O)O)CCN(CC(=O)O)CC2)C(=O)O)C(C)(C)O)NC(=O)[C@H](Cc2ccc(O)cc2)NC(=O)[C@H](C(C)C)NC(=O)[C@H](CC(=O)O)NC(=O)[C@H](CC2CCOCC2)NC(=O)[C@H](CCN)NC(=O)CNC(=O)[C@H](C(C)(C)C)NC1=O [compound 371, Ac-hLeu-Y-C-Tbg-G-Dab-ThpA-D-V-Y-C-5FW-F-hydroxyVal-dLys(DOTA)-COOH] (Ac-[hLeu]YC[Tle]G[Dab][Ala(4-THP)]DVYC[Trp(5-F)]F[Val(3-OH)][dK](DOTA)-OH; disulfide 3-11) | A (%≤25) | B (25<%≤50) |  |  | < 1 nM
6 | CC(=O)N[C@@H](CCC(C)C)C(=O)N[C@@H](Cc1ccc(O)cc1)C(=O)N[C@H]1CSSC[C@@H](C(=O)N[C@@H](Cc2c[nH]c3ccc(F)cc23)C(=O)N[C@@H](Cc2ccccc2)C(=O)N[C@H](C(=O)N[C@H](CCCCNC(=O)CN2CCN(CC(=O)O)CCN(CC(=O)O)CCN(CC(=O)O)CC2)C(N)=O)C(C)(C)O)NC(=O)[C@H](Cc2ccc(O)cc2)NC(=O)[C@H](C(C)C)NC(=O)[C@H](CC(=O)O)NC(=O)[C@H](CC2CCOCC2)NC(=O)[C@H](CCCCN)NC(=O)CNC(=O)[C@H](C(C)(C)C)NC1=O [compound 366, Ac-hLeu-Y-C-Tbg-G-K-ThpA-D-V-Y-C-5FW-F-hydroxyVal-dLys(DOTA)-CONH2] (Ac-[hLeu]YC[Tle]GK[Ala(4-THP)]DVYC[Trp(5-F)]F[Val(3-OH)][dK](DOTA)-NH2; disulfide 3-11) | A (%≤25) | B (25<%≤50) |  |  | < 1 nM
7 | CC(=O)N[C@@H](CCC(C)C)C(=O)N[C@@H](Cc1ccc(O)cc1)C(=O)N[C@H]1CSSC[C@@H](C(=O)N[C@@H](Cc2c[nH]c3ccc(F)cc23)C(=O)N[C@@H](Cc2ccccc2)C(=O)N[C@H](C(=O)N[C@H](CCCCNC(=O)CCOCCOCCOCCOCCNC(=O)CN2CCN(CC(=O)O)CCN(CC(=O)O)CCN(CC(=O)O)CC2)C(=O)O)C(C)(C)O)NC(=O)[C@H](Cc2ccc(O)cc2)NC(=O)[C@H](C(C)C)NC(=O)[C@H](CC(=O)O)NC(=O)[C@H](CC2CCOCC2)NC(=O)[C@H](CC2CCNCC2)NC(=O)CNC(=O)[C@H](C(C)(C)C)NC1=O [compound 465, Ac-hLeu-Y-C-Tbg-G-PipAla-ThpA-D-V-Y-C-5FW-F-hydroxyVal-dLys(PEG4-DOTA)-COOH] (Ac-[hLeu]YC[Tle]G[Ala(piperidin-4-yl)][Ala(4-THP)]DVYC[Trp(5-F)]F[Val(3-OH)][dK]([PEG4-DOTA])-OH; disulfide 3-11) | A (%≤25) | B (25<%≤50) | < 1 nM |  | 
8 | CC(=O)N[C@@H](CCC(C)C)C(=O)N[C@@H](Cc1ccc(O)cc1)C(=O)N[C@H]1CSSC[C@@H](C(=O)N[C@@H](Cc2c[nH]c3ccccc23)C(=O)N[C@@H](Cc2ccccc2)C(=O)N[C@H](C(=O)N[C@H](CCCCNC(=O)CN2CCN(CC(=O)O)CCN(CC(=O)O)CCN(CC(=O)O)CC2)C(N)=O)[C@@H](C)O)NC(=O)[C@H](Cc2ccc(O)cc2)NC(=O)[C@H](C(C)C)NC(=O)[C@H](CC(=O)O)NC(=O)[C@H](Cc2ccc(O)cc2)NC(=O)[C@H](CCCCN)NC(=O)CN(C)C(=O)[C@H](C(C)C)NC1=O [compound 74, Ac-hLeu-Y-C-V-Sar-K-Y-D-V-Y-C-W-F-Thr-dLys(DOTA)-CONH2] (Ac-[hLeu]YCV[Sar]KYDVYCWFT[dK](DOTA)-NH2; disulfide 3-11) | A (%≤25) | B (25<%≤50) |  | 1 to 10 nM | 
